Test results from ChEMBL document CHEMBL1141913, “Novel 2-aminothiazonaphthalimides as visible light activatable photonucleases: effects of intercalation, heterocyclic-fused area and side chains” (Bioorg Med Chem Lett, 2005).

system: Calf thymus DNA; test: Scatchard binding constant between calf thymus DNA (CT-DNA) measured in 30 mM Tris HCl buffer at pH 7.5; format: nucleic-acid assay; conditions: Bos taurus

| Binding constant [M⁻¹] | SMILES |
| --- | --- |
| 28700 | CN(C)CCCN1C(=O)c2cccc3c2c(cc2nc(N)sc23)C1=O |
| 25600 | CN(C)CCN1C(=O)c2cccc3cc4nc(N)sc4c(c23)C1=O |
| 47300 | CN(C)CCCN1C(=O)c2cccc3cc4nc(N)sc4c(c23)C1=O |
| 19800 | CN(C)CCN1C(=O)c2cccc3c2c(cc2nc(N)sc23)C1=O |
